Data: patent US9977030B2, “Detection of shed CD31, diagnosis of atherothrombosis and autoimmune disorders, and methods for analyzing signaling pathways” (INSTITUT NATIONAL DE LA SANTE ET DE LA RECHERCHE MEDICALE …, priority 2008, dated 2018)

Tested on: CD31 signaling complex captured by PECAM1.2 (CD31 domain 6) beads
Experiment: CBA beads assessment of CD31 ITIM-dependent inhibitory pathway in Jurkat T cells (protein association and phosphorylation)
Assay type: cell-based, human
Experimental: Lysis of the cells. Jurkat T cells in log phase (10×10^6/ml, 1 ml) were either left untouched (negative control) or incubated with Na3VO4/H2O2 (sodium ortovanadate which is a tyrosin phosphatase inhibitor, positive control for tyrosin phosphorylation). In parallel, cells were stimulated either with CD3 or with CD3+ CD31 (domain 2, WM-59 antibody) by antibody-mediated crosslinking. After 20′ incubation at 37° C. in 5% CO2, the cells were lysed on ice for 30′ with a RIPA buffer containing a cocktail of protease and phosphatase inhibitors. Lysates were ultragentrifuged and supernatants were used either straightforward or aliquoted and stored at −20° for further analysis.
Capture of the target protein on a solid support (1 hour at room temperature). This step follows the principle of imunoprecipitation but the signaling complex is nor denatured neither reduced, and no electrophoresis and/or blotting is carried out. As a solid support, CBA® functional beads previously coupled with an antibody directed to the membrane-proximal CD31 Ig-like domain 6 (clone MBC 78.2 also called PECAM1.2) were used following the manufacturer's instructions. An aliquot of 20 μl of lysate supernatant from each condition was incubated with 5 μl PECAM1.2-CBA® for 1 hour at room temperature.
Detection of molecules associated with CD31 and of the phosphorylation state of CD31 ITIM 686. After washing of the beads once with CBA washing buffer (100 μl/tube), the beads were been aliquoted in 4 separate tubes and incubated with fluorescent antibodies directed to: • CD3-FITC; • CD28-PE; • CD31 domain 6 (PECAM1.2 FITC) • CD31 domain 2 (WM-59 PE) • phosphoTyrosin (clone 4G10 FITC); • phosphoSerin/Threonin (labelled with FITC) • CD31 phosphotyrosin 686 (rabbit polyclonal conjugated with alexafluor 488 antirabbit secondary antibody); or • SHP2-PE.
After 1 hour incubation at room temperature in the dark, beads were washed once with 100 μl CBA washing buffer and more than 600 beads were acquired using an LSR II and DIVA® software.
4. Analysis. The median fluorescence in each fluorescent channel was recorded. The DIVA® software also calculated the % CV (variability coefficient), which can be considered as an equivalent of error bar value for repeated measure and allow statistical comparison between samples.

[1] = Jurkat T cell lysate, 20' incubation, captured on PECAM1.2-CBA beads

For sodium ortovanadate [Na3VO4/H2O2], the “MFI CD3” value (CD3 associated with bead-captured CD31, Jurkat T cells) was 354 MFI, the “MFI CD28” value (CD28 associated with bead-captured CD31, Jurkat T cells) was 3932 MFI and the “% shed CD31” value [1] was 25%. The “CD31 dom2” value [1] was 77 ng/mL, the “CD31 dom6” value [1] was 103 ng/mL and the “MFI SHP-2” value (SHP-2 associated with bead-captured CD31, Jurkat T cells) was 193 MFI. For the same substance, the “MFI CD31 pY686” value (bead-captured CD31, Jurkat T cells) was 10667 MFI, the “MFI pSer/pThreo” value (phosphoSerin/Threonin on bead-captured CD31 complex, Jurkat T cells) was 324 MFI and the “MFI pY (4G10)” value (total phosphoTyrosin on bead-captured CD31 complex, Jurkat T cells) was 1205 MFI.
